Data from patent publication US9199975B2, “Biaryl imidazole derivatives for regulating CYP17” (Asana Biosciences, LLC, priority 2011, dated 2015).

The molecules below were run against T1, rat CYP17 (Rattus norvegicus, UniProt P11715) (assay: CYP17 inhibition assay in rat testicular microsomes). Details: 3H3-17α-hydroxypregnenolone substrate, 60 minutes at 37° C.
T1 construct: Rat testis tissue was collected and disrupted with 30 strokes of a glass homogenizer; from tissue; host or cells: rat testis (microsomal fraction)
T1 sequence (P11715 1-507): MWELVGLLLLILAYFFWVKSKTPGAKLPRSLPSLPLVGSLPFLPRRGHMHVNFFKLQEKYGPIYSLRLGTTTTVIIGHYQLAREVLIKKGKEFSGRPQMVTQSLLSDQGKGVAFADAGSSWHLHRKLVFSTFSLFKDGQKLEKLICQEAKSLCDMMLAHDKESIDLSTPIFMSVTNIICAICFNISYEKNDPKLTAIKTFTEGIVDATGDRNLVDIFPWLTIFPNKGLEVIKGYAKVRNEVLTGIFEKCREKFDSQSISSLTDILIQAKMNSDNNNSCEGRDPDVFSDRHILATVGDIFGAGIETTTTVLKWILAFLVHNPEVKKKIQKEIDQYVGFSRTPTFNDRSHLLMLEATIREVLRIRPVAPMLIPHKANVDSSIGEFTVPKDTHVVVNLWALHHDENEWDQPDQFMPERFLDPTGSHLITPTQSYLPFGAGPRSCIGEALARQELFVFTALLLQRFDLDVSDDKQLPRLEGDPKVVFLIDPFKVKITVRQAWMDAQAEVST
Format: biochemical
Protocol: CYP17 Inhibition Assay in Rat Testicular Microsomes (Rat CYP17) or Yeast Microsome Overexpressing Human CYP17
A. Materials • 1. NADPH (Sigma): A working stock was prepared by adding 25 μL of 6.5 mM NADPH in each tube. The final concentration of NADPH used in the assay was 325 μM. • 2. Potassium Phosphate Buffer: One molar (1M) solutions of K2HPO4 and KH2PO4 were prepared. Eight mL of the 1 M KH2PO4 and 1.98 mL of the 1 M K2HPO4 were combined and the pH was adjusted to 7.4. • 3. ^3H3-17α-hydroxypregnenolone (American Radiolabeled Chemicals, Inc., stock 1 μCi/μL): A 1:1 dilution of ^3H3-17α-hydroxypregnenolone in ethanol was prepared by combining 100 μL ^3H3-17α-hydroxypregnenolone+100 μL ethanol for one complete 96 well plate. For the reaction, 2 μL of the diluted ^3H3-17α-hydroxypregnenolone was added in each tube, i.e., 1 μCi/reaction. • 4. Microsome Isolation Buffer: The microsome isolation buffer was prepared by combining 250 mM Sucrose, 5 mM EDTA, 10 mM Tris HCl, 4 mM DTT, and adjusting to pH 7.4. • 5. TEG Buffer: The TEG buffer was prepared by combining 50 mM Tris HCl, 1 mM EDTA, and 20% Glycerol. • 6. Rat Testicular Microsomes: Rat testis tissue was collected and disrupted with 30 strokes of a glass homogenizer on ice with 250 μL of microsome isolation buffer, followed by centrifugation at 10,000 g for 10 minutes at 4° C. The supernatant was collected and centrifuged at 100,000 g for 45 minutes at 4° C. The pellet was dissolved in TEG Buffer and the protein was quantified. The homogenized microsome samples were then frozen at −80° C. • 7. Yeast Microsomes which overexpress the human CYP17 enzyme were obtained from Premas Biotech, India.
Potassium phosphate buffer (470 μL) was prepared as described above and was added to each well of a deep well plate. The test compound was diluted using a TECAN liquid handler and 5 μL of diluted compound was transferred to each well (96 deep well/1 mL). A solution (25 μL) of 6.5 mM NADPH was added (final concentration of 325 µM in the assay). ^3H3-17α-hydroxypregnenolone (2 μL of the working stock) was added to each tube. The plates were then pre-incubated for 15 minutes at 37° C. Following the pre-incubation, either 5 μL rat testicular microsomes (150-160 μg) or 5 μL of yeast microsomes expressing human CYP17 (1.7 pmol), was added. Incubation was at 37° C. for 60 minutes in the presence of oxygen. The plates were then placed in ice and chloroform (500 μL) was added, mixed well and incubated at 4° C. for 20 minutes. The plates were then centrifuged at 1000 rpm for 15 minutes at 4° C.
A portion (300 μL) of the aqueous solution was collected and mixed with a 5% aqueous suspension of activated charcoal (300 μL). The plates were then incubated at 4° C. for 30 minutes, after which the plates were centrifuged at 1000 rpm for 15 minutes at 4° C. From this, 125 μL of the aqueous solution was collected and plated into a 96 well plate. Microscint™ 40 [125 μL, Perkin-Elmer; containing a mixture of a polymer based on alkylphenolethoxylate (20-40%), diethanolamine-phosphoric acid ester ammonium salt (10-20%), sodium dioctyl sulphosuccinate (2.5-10%), triethyl phosphate (2.5-10%), 3,6-dimethyl-4-octyne-3,6-diol (≦2.5%), a polymer based on nonylphenolethoxylate (≦2.5%), diisopropyl naphthalene isomers (40-60%), 2,5-diphenyloxazole (≦2.5%), and 9,10-dimethylanthracene] was added and mixed well. After 30 minutes of incubation, the samples were analyzed with a MicroBeta® Trilux microplate liquid scintillation counter and luminometer (Perkin-Elmer).
Molecule `CC(c1ccc(-c2cccc(F)c2)cn1)n1ccnc1` (centres unmarked) [Example 57, 5-(3-Fluoro-phenyl)-2-(1-imidazol-1-yl-ethyl)-pyridine] has an IC50 of under 50 nM.
With `COc1ccc(-c2ccc(C(C)n3ccnc3)nc2)cc1` (centres unmarked) [Example 15, 2-(1-(1H-imidazol-1-yl)ethyl)-5-(4-methoxyphenyl)pyridine] the IC50 was 50 to 200 nM.
Work on `CCC(c1ccc(-c2ccc(COCOC)cc2)cn1)n1ccnc1` (centres unmarked) [Example 11, 2-(1-(1H-imidazol-1-yl)propyl)-5-(4-((methoxymethoxy)methyl)-phenyl)pyridine] yielded an IC50 of 50 to 200 nM.
`CCc1cc(F)ccc1-c1ncc(C(CC)n2ccnc2)s1` (centres unmarked) [Example 46, 2-(2-Ethyl-4-fluoro-phenyl)-5-(1-imidazol-1-yl-propyl)-thiazole] was tested, and the IC50 was under 50 nM.
`CCC(c1cnc(-c2cn[nH]c2)s1)n1ccnc1` (centres unmarked) [Example 44, 5-(1-Imidazol-1-yl-propyl)-2-(1H-pyrazol-4-yl)-thiazole] was tested, and the IC50 was under 50 nM.
For `CC(c1ccc(-c2ccc(F)cc2)nc1)n1ccnc1` (centres unmarked) [Example 54, 2-(4-Fluoro-phenyl)-5-(1-imidazol-1-yl-ethyl)-pyridine], the IC50 was under 50 nM.
With `COc1ccc(-c2ccc(C(C)(C)n3ccnc3)nc2)cc1` [Example 61, 2-(1-Imidazol-1-yl-1-methyl-ethyl)-5-(4-methoxy-phenyl)-pyridine] the IC50 was 50 to 200 nM.
`CCOC(=O)c1ccc(-c2ncc(C(C)n3ccnc3)s2)cc1` (centres unmarked) [Example 55, 4-[5-(1-Imidazol-1-yl-ethyl)-thiazol-2-yl]-benzoic acid ethyl ester] was tested, and the IC50 was under 50 nM.
Molecule `CCC(c1ccc(-c2ccc(NC(C)=O)cc2)cn1)n1ccnc1` (centres unmarked) [Example 43, N-{4-[6-(1-Imidazol-1-yl-propyl)-pyridin-3-yl]-phenyl}-acetamide] has an IC50 of under 50 nM.
`CCC(c1ccc(-c2ccc(C(=O)NC)cc2)cn1)n1ccnc1` (centres unmarked) [Example 9, 4-(6-(1-(1H-imidazol-1-yl)propyl)pyridin-3-yl)-N-methylbenzamide] gave an IC50 of under 50 nM.
Molecule `CC(c1ccc(-c2ccc(F)cc2)cn1)n1ccnc1` (centres unmarked) [Example 34, 5-(4-Fluoro-phenyl)-2-(1-imidazol-1-yl-ethyl)-pyridine] has an IC50 of under 50 nM.
`CC(c1cnc(-c2ccc(=O)[nH]c2)s1)n1ccnc1` (centres unmarked) [Example 63, 5-[5-(1-Imidazol-1-yl-ethyl)-thiazol-2-yl]-1H-pyridin-2-one] gave an IC50 of 201 to 10000 nM.
`CCOC(=O)c1ccc(-c2ccc(C(CC)n3ccnc3)nc2)cc1` (centres unmarked) [Example 5, Ethyl 4-(6-(1-(1H-imidazol-1-yl)propyl)pyridin-3-yl)benzoate] was tested, and the IC50 was 50 to 200 nM.
Work on `CC(C)(c1ccc(-c2ccc(O)cc2)s1)n1ccnc1` [Example 26, 4-[5-(1-Imidazol-1-yl-1-methyl-ethyl)-thiophen-2-yl]-phenol] yielded an IC50 of under 50 nM.
With `COc1ccc(-c2ccc(C(CC(C)C)n3ccnc3)nc2)cc1` (centres unmarked) [Example 62, 2-(1-Imidazol-1-yl-3-methyl-butyl)-5-(4-methoxy-phenyl)-pyridine] the IC50 was 50 to 200 nM.
Work on `CCC(c1ccc(-c2ccc(OC)cc2)s1)n1ccnc1` (centres unmarked) [Example 3, 1-(1-(5-(4-methoxyphenyl)thiophen-2-yl)propyl)-1H-imidazole] yielded an IC50 of under 50 nM.
With `COc1ccc(-c2ccc(C(C)n3ccnc3)s2)cc1` (centres unmarked) [Example 36, 1-{1-[5-(4-Methoxy-phenyl)-thiophen-2-yl]-ethyl}-1H-imidazole] the IC50 was under 50 nM.
Molecule `CC(c1ccc(-c2ccc(F)cc2)cn1)n1ccnc1` (centres unmarked) [Example 12, 2-(1-(1H-imidazol-1-yl)ethyl)-5-(4-fluorophenyl)pyridine] has an IC50 of under 50 nM.
Molecule `CCC(c1ccc(-c2cccc(F)c2)cn1)n1ccnc1` (centres unmarked) [Example 45, 5-(3-Fluoro-phenyl)-2-(1-imidazol-1-yl-propyl)-pyridine] has an IC50 of under 50 nM.
`CCC(c1ccc(-c2cccc(C#N)c2)cn1)n1ccnc1` (centres unmarked) [Example 53, 3-[6-(1-Imidazol-1-yl-propyl)-pyridin-3-yl]-benzonitrile] gave an IC50 of under 50 nM.
`COc1ccc(-c2cccc(C(C)n3ccnc3)n2)cc1` (centres unmarked) [Example 42, 2-(1-Imidazol-1-yl-ethyl)-6-(4-methoxy-phenyl)-pyridine] was tested, and the IC50 was under 50 nM.
`CCC(c1ccc(-c2ccc(C(N)=O)cc2)cn1)n1ccnc1` (centres unmarked) [Example 10, 4-(6-(1-(1H-imidazol-1-yl)propyl)pyridin-3-yl)benzamide] was tested, and the IC50 was under 50 nM.
`CC(C)CC(c1ccc(-c2ccc(O)cc2)s1)n1ccnc1` (centres unmarked) [Example 23, 4-(5-(1-(1H-imidazol-1-yl)-3-methylbutyl)-thiophen-2-yl)phenol] was tested, and the IC50 was under 50 nM.
With `CCC(c1ccc(-c2ccccc2C#N)cn1)n1ccnc1` (centres unmarked) [Example 18, 2-(6-(1-(1H-imidazol-1-yl)propyl)pyridin-3-yl)benzonitrile] the IC50 was under 50 nM.
For `CCC(c1cnc(-c2ccc(F)cc2)s1)n1ccnc1` (centres unmarked) [Example 33, 2-(4-Fluoro-phenyl)-5-(1-imidazol-1-yl-propyl)-thiazole], the IC50 was under 50 nM.
In the case of `CC(c1ccc(-c2ccc(=O)n(C(C)C)c2)s1)n1ccnc1` (centres unmarked) [Example 21, 5-(5-(1-(1H-imidazol-1-yl)ethyl)thiophen-2-yl)-1-isopropylpyridin-2(1H)-one], the IC50 is reported as under 50 nM.
`CCC(c1nnc(-c2ccc(F)cc2)s1)n1ccnc1` (centres unmarked) [Example 19, 2-(1-(1H-imidazol-1-yl)propyl)-5-(4-fluorophenyl)-1,3,4-thiadiazole] was tested, and the IC50 was under 50 nM.
In the case of `COc1ccc(-c2ccc(C(C)n3ccnc3)s2)cn1` (centres unmarked) [Example 25, 5-[5-(1-Imidazol-1-yl-ethyl)-thiophen-2-yl]-2-methoxy-pyridine], the IC50 is reported as under 50 nM.
`COc1ccc(-c2ncc(C(C)n3ccnc3)s2)cn1` (centres unmarked) [Example 58, 5-[5-(1-Imidazol-1-yl-ethyl)-thiazol-2-yl]-2-methoxy-pyridine] was tested, and the IC50 was 50 to 200 nM.
Molecule `COc1ccc(-c2ccc(C(CC(C)C)n3ccnc3)s2)cc1` (centres unmarked) [Example 39, 1-{1-[5-(4-Methoxy-phenyl)-thiophen-2-yl]-3-methyl-butyl}-1H-imidazole] has an IC50 of under 50 nM.
`CCC(c1ccc(-c2ccc(C#N)cc2)cn1)n1ccnc1` (centres unmarked) [Example 17, 4-[6-(1-Imidazol-1-yl-propyl)-pyridin-3-yl]-benzonitrile] gave an IC50 of under 50 nM.
Work on `CC(c1cnc(-c2ccc(C#N)cc2)s1)n1ccnc1` (centres unmarked) [Example 22, 4-(5-(1-(1H-imidazol-1-yl)ethyl)thiazol-2-yl)benzonitrile] yielded an IC50 of under 50 nM.
In the case of `CCC(c1cnc(-c2ccc(F)cc2F)s1)n1ccnc1` (centres unmarked) [Example 32, 2-(2,4-Difluoro-phenyl)-5-(1-imidazol-1-yl-propyl)-thiazole], the IC50 is reported as under 50 nM.
`CC(C)(c1ccc(-c2ccc(O)cc2)cn1)n1ccnc1` [Example 52, 4-[6-(1-Imidazol-1-yl-1-methyl-ethyl)-pyridin-3-yl]-phenol] gave an IC50 of under 50 nM.
`CC(=O)Nc1ccc(-c2ccc(C(C)n3ccnc3)nc2)cc1` (centres unmarked) [Example 64, N-{4-[6-(1-Imidazol-1-yl-ethyl)-pyridin-3-yl]-phenyl}-acetamide] was tested, and the IC50 was 201 to 10000 nM.
